Key:
HO-1 = assay: Western blot of HO-1 protein in RLE-6TN cells under hyperoxia; assay type: cell-based, rat; details: T3 10^−6 M
Procedure: FIG. 10. HO-1 Upregulation is required for T3-increased RLE-6TN cell survival in hyperoxia. […] The cells were then collected for Western Blot analysis. (B) The cells were incubated in 21% O2 and 5% CO2 for 72 hours in the present of HO-1 inhibitor Tin Protoporphyrin IX(10^−6 M) tinT3 (10^−6 M). […] Cell viability is assessed with trypan blue. The number of viable cells under specific conditions is presented as a percentage of the cell number related to hyperoxia alone. Data are mean±s.d. of three independent experiments with *=P<0.05; **=P<0.01.
(§1) At the end of the hyperoxia exposure period, the viable cells were counted by trypan blue dye exclusion.
(§2) The cells were lysed in lysis buffer containing 20 mM Tris HCl (pH 7.5), 150 mM NaCl, 1 mM EDTA, 1 mM EGTA, 1% (vol/vol) Triton X-100 with protease inhibitors (1 mM PMSF, 2 μg/ml pepstatin, and 10 μg/ml each of aprotinin and leupeptin), and phosphatase inhibitors (2.5 mM sodium pyrophosphate, 1 mM β-glycerophosphate, and 1 mM Na3VO4). The lysate was drawn 10 times through a 25-gauge needle on ice for further lysis and then was centrifuged at 13,000 rpm for 15 minutes at 4° C. The supernatant was collected, and the protein concentrations were determined by use of the BCA protein assay kit (Sigma-Aldrich, St. Louis, MO). Immediately after this step, equal amounts of protein were subjected to Western blotting analysis.

[1] = system: Sprague Dawley rats exposed to normobaric hyperoxia; assay: Hyperoxia-induced lung injury (HALI) model with intraperitoneal T3
Nrf2 = assay: Western blot of Nrf2 protein in RLE-6TN cells under hyperoxia; assay type: cell-based, rat; details: 24 hours hyperoxia, T3 10^−6 M
Excerpt: FIG. 9. […] The cells were then collected for Western Blotting analysis. (A) Cellular total protein of Nrf2. (B) Nuclear Nrf2.
FIG. 12. T3-induced increase in Nrf2 and HO-1 protein via PI3K in hyperoxia. (A) Western Blot and densitometry data for total Nrf2. (B) Western Blot and densitometry data for cytoplasmic Nrf2. (C) Western Blot and densitometry data for nuclear Nrf2.
as §1
Nuclei were extracted with NE-PER nuclear and cytoplasmic extraction reagents kit (Thermo Fisher Scientific, Inc., Waltham, MA) following the manufacturer's instruction.
as §2

[2] = system: intubated patients with ARDS; assay: Phase I/II trial of instilled T3: safety and clinical course; assay type: in vivo, human
Excerpt: Ten milliliters (mls) of reformulated, pH-adjusted commercial intravenous T3 solution (Par Pharmaceutical, Navi Mumbai, India; and XGen Pharmaceuticals DJB, Inc., Horseheads, NY) was instilled directly into the airspaces via a suction catheter in the endotracheal tube of intubated patients with ARDS. […] The study was approved by the Essentia IRB (Duluth, MN) and listed on ClinicalTrials.gov (NCT04115514).
Subsequent doses were given on days 4, 6, and 7. […] Despite Klebsiella aerogenes positive sputum culture, they were extubated on ventilator day 11. After discharge from the ICU, they had some confusion and delirium.

Akt = Akt phosphorylation in RLE-6TN cells under hyperoxia; assay type: cell-based, rat; details: 24 hours hyperoxia, T3 added for 20 minutes; vs room air control and hyperoxia alone
Procedure: as §2

[3] = system: rat lung mucosa and airspaces; assay: Preliminary studies: intratracheal instillation of liothyronine sodium without pH adjustment; details: pH of >10.0 as supplied commercially
Procedure: (§3) Using aseptic technique, vials of liothyronine sodium were opened and the entire contents were transferred into sterile 1.5 mL Eppendorf tubes. 80-90 μL of 1.0 N HCl was added to the tube and gently vortexed, and the pH was measured using pH test strips (pH 4.5 to 10.0, Ricca Chemical Co., Arlington, TX). Additional HCl was titrated in gradually, as needed, until the pH was in the desired range. […] This solution was stored at 4° C. and used for up to 26 hours after pH adjustment procedure.

[4] = Preliminary dose-finding studies, intravenous vs intratracheal 3.0 μg neutral pH T3; assay type: in vivo, rats
Procedure: FIG. 6. […] A single dose of T3 was administered intravenously (diamonds) or via intratracheal instillation (squares). Samples were analyzed for total T3 using a chemiluminescence assay.

[5] = system: rat lung mucosa and airspaces; details: in vivo
Procedure: as §3

[6] = 3.0 μg T3 intratracheally vs 3.0 μg intravenously

With `N[C@@H](Cc1cc(I)c(Oc2ccc(O)c(I)c2)c(I)c1)C(=O)O` [T3, triiodothyronine] the “Total cellular HO-1 protein” value (HO-1) was “significantly enhanced total cellular protein of HO-1”, the BALF protein concentration ([1]; 48-hour and 60-hour time points of hyperoxia, vs hyperoxia alone) was “attenuated significantly the hyperoxic increases in the BALF protein concentration” and the “Serum total T3” value ([1]; 95% oxygen 60 hours, intraperitoneal T3 supplementation (50 μg/kg bodyweight/24 hours)) was “augmented serum total T3”. The “MPO-positive cells in the lungs (immunostaining)” value ([1]; 95% oxygen 60 hours, vs hyperoxic lungs without T3) was “fewer MPO-positive cells”, the BALF cell numbers ([1]; 48 hours and 60 hours of 95% oxygen, vs hyperoxia alone) was “significantly reduced the BALF cell numbers” and the “Lung morphology (histopathology)” value ([1]; 60 hours hyperoxia, systemic T3 supplementation) was “persistence of virtually normal lung morphology”. For the same molecule, the “Lung MPO activity” value ([1]; 60 hours of hyperoxia) was “significantly reduced the hyperoxia-induced MPO activity”, the “Total cellular and nuclear Nrf2 protein” value (Nrf2) was “significantly increased both total cellular and nuclear Nrf-2 protein expression” and the Follow-up status ([2]; Patient 1, 60 days) was “normal complete pulmonary function tests (PFTs) and chest radiograph at 60 days”. For the same molecule, the “Ventilator day of extubation” value ([2]; Patient 1, four 50 μg doses from day 3) was 11, the Tolerability of instillation ([2]; Patient 2) was “tolerated each installation without apparent adverse side effects” and the Follow-up status ([2]; Patient 2, 60-day clinic follow up) was “asymptomatic with normal lung exam, chest radiograph and PFTs”. For the same molecule, the “Ventilator day of extubation” value ([2]; Patient 2, escalating doses from ventilator day 3) was 20, the Oxygenation ([2]; Patient 2, previously deteriorating) was “stabilized over the four treatment days” and the “Adverse pulmonary or systemic events ascribed to T3 instillation” value ([2]; Patients 1 and 2) was “Neither patient had significant adverse pulmonary or systemic events”. The “Vasopressor dose required to maintain mean arterial pressure” value ([2]; Patients 1 and 2) was “decreased in temporal association with the T3 instillation”, the “Phosphorylation of Akt at Ser473” value (Akt) was “augmented phosphorylation of Akt at Ser473” and the “Tolerability of intratracheal instillation” value [3] was “do not tolerate”. For the same molecule, the “AUC after intratracheal relative to intravenous administration” value [4, 6] was “⅕”, the “T3 Cmax after intratracheal relative to intravenous administration” value [4, 6] was 1/17 and the “Acute effects on physiologic parameters (respiratory rate, O2 saturation, heart rate)” value ([4]; single intravenous delivery or five days of intratracheal delivery of 3.0 μg neutral pH T3) was “no acute effects on physiologic parameters”. The “Toxicity of instillation into airway and lung” value [5] was “extremely toxic to rat lung mucosa and airspaces”.
